In US8192962B2, “Processes for detecting toxic substances” (Daikin Industries, Ltd., priority 2001, dated 2012):

Tested on: Transport facilitation protein genes
Experiment: DNA chip mRNA expression in yeast, transport facilitation protein genes (Table 5)
Assay type: cell-based, Saccharomyces cerevisiae S288C
Summary of the method: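 Cells were grown at 25° C. in YPD, treated at logarithmic phase for 2 h with a chemical at a concentration inhibiting growth but not causing death, and compared with untreated cultures. Labeled cDNA was hybridized to a DNA chip carrying all yeast genes, and the expression ratio was taken from scanner fluorescence.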

## Na2As [(1)]
Yeast gene YBL030C
  The level of expressed mRNA in the presence of chemical substance/The level of expressed mRNA in the absence of chemical substance: 1.0
Yeast gene YBL099W
  The level of expressed mRNA in the presence of chemical substance/The level of expressed mRNA in the absence of chemical substance: 0.8
Yeast gene YBR052C
  The level of expressed mRNA in the presence of chemical substance/The level of expressed mRNA in the absence of chemical substance: 1.6
Yeast gene YBR068C
  The level of expressed mRNA in the presence of chemical substance/The level of expressed mRNA in the absence of chemical substance: 1.1
Yeast gene YBR127C
  The level of expressed mRNA in the presence of chemical substance/The level of expressed mRNA in the absence of chemical substance: 0.8
Yeast gene YBR132C
  The level of expressed mRNA in the presence of chemical substance/The level of expressed mRNA in the absence of chemical substance: 0.9
Yeast gene YBR207W
  The level of expressed mRNA in the presence of chemical substance/The level of expressed mRNA in the absence of chemical substance: 0.8
Yeast gene YBR293W
  The level of expressed mRNA in the presence of chemical substance/The level of expressed mRNA in the absence of chemical substance: 1.9
Yeast gene YBR294W
  The level of expressed mRNA in the presence of chemical substance/The level of expressed mRNA in the absence of chemical substance: 6.3
Yeast gene YBR295W
  The level of expressed mRNA in the presence of chemical substance/The level of expressed mRNA in the absence of chemical substance: 1.4
Yeast gene YBR298C
  The level of expressed mRNA in the presence of chemical substance/The level of expressed mRNA in the absence of chemical substance: 1.1
Yeast gene YCL025C
  The level of expressed mRNA in the presence of chemical substance/The level of expressed mRNA in the absence of chemical substance: 1.1
Yeast gene YCL038C
  The level of expressed mRNA in the presence of chemical substance/The level of expressed mRNA in the absence of chemical substance: 1.6
Yeast gene YCR024C-A
  The level of expressed mRNA in the presence of chemical substance/The level of expressed mRNA in the absence of chemical substance: 0.8
Yeast gene YCR037C
  The level of expressed mRNA in the presence of chemical substance/The level of expressed mRNA in the absence of chemical substance: 0.7
Yeast gene YCR098C
  The level of expressed mRNA in the presence of chemical substance/The level of expressed mRNA in the absence of chemical substance: 1.6
Yeast gene YDL128W
  The level of expressed mRNA in the presence of chemical substance/The level of expressed mRNA in the absence of chemical substance: 0.8
Yeast gene YDL198C
  The level of expressed mRNA in the presence of chemical substance/The level of expressed mRNA in the absence of chemical substance: 1.4
Yeast gene YDL210W
  The level of expressed mRNA in the presence of chemical substance/The level of expressed mRNA in the absence of chemical substance: 1.2
Yeast gene YDL245C
  The level of expressed mRNA in the presence of chemical substance/The level of expressed mRNA in the absence of chemical substance: 1.0
Yeast gene YDR038C
  The level of expressed mRNA in the presence of chemical substance/The level of expressed mRNA in the absence of chemical substance: 0.6
Yeast gene YDR039C
  The level of expressed mRNA in the presence of chemical substance/The level of expressed mRNA in the absence of chemical substance: 0.6
Yeast gene YDR086C
  The level of expressed mRNA in the presence of chemical substance/The level of expressed mRNA in the absence of chemical substance: 1.3
Yeast gene YDR270W
  The level of expressed mRNA in the presence of chemical substance/The level of expressed mRNA in the absence of chemical substance: 0.7
Yeast gene YDR298C
  The level of expressed mRNA in the presence of chemical substance/The level of expressed mRNA in the absence of chemical substance: 1.3
Yeast gene YDR342C
  The level of expressed mRNA in the presence of chemical substance/The level of expressed mRNA in the absence of chemical substance: 2.8
Yeast gene YDR343C
  The level of expressed mRNA in the presence of chemical substance/The level of expressed mRNA in the absence of chemical substance: 1.2
Yeast gene YDR345C
  The level of expressed mRNA in the presence of chemical substance/The level of expressed mRNA in the absence of chemical substance: 0.8
Yeast gene YDR387C
  The level of expressed mRNA in the presence of chemical substance/The level of expressed mRNA in the absence of chemical substance: 0.8
Yeast gene YDR497C
  The level of expressed mRNA in the presence of chemical substance/The level of expressed mRNA in the absence of chemical substance: 0.7
Yeast gene YEL027W
  The level of expressed mRNA in the presence of chemical substance/The level of expressed mRNA in the absence of chemical substance: 1.2
Yeast gene YEL063C
  The level of expressed mRNA in the presence of chemical substance/The level of expressed mRNA in the absence of chemical substance: 0.7
Yeast gene YEL065W
  The level of expressed mRNA in the presence of chemical substance/The level of expressed mRNA in the absence of chemical substance: 0.3
Yeast gene YER053C
  The level of expressed mRNA in the presence of chemical substance/The level of expressed mRNA in the absence of chemical substance: 1.6
Yeast gene YFL011W
  The level of expressed mRNA in the presence of chemical substance/The level of expressed mRNA in the absence of chemical substance: 1.2
Yeast gene YFL041W
  The level of expressed mRNA in the presence of chemical substance/The level of expressed mRNA in the absence of chemical substance: 0.7
Yeast gene YFL050C
  The level of expressed mRNA in the presence of chemical substance/The level of expressed mRNA in the absence of chemical substance: 0.7
Yeast gene YFL054C
  The level of expressed mRNA in the presence of chemical substance/The level of expressed mRNA in the absence of chemical substance: 1.6
Yeast gene YGL006W
  The level of expressed mRNA in the presence of chemical substance/The level of expressed mRNA in the absence of chemical substance: 2.5
Yeast gene YGL008C
  The level of expressed mRNA in the presence of chemical substance/The level of expressed mRNA in the absence of chemical substance: 0.6
Yeast gene YGL104C
  The level of expressed mRNA in the presence of chemical substance/The level of expressed mRNA in the absence of chemical substance: 0.8
Yeast gene YGL167C
  The level of expressed mRNA in the presence of chemical substance/The level of expressed mRNA in the absence of chemical substance: 0.9
Yeast gene YGL255W
  The level of expressed mRNA in the presence of chemical substance/The level of expressed mRNA in the absence of chemical substance: 0.7
Yeast gene YGR055W
  The level of expressed mRNA in the presence of chemical substance/The level of expressed mRNA in the absence of chemical substance: 2.5
Yeast gene YGR065C
  The level of expressed mRNA in the presence of chemical substance/The level of expressed mRNA in the absence of chemical substance: 0.8
Yeast gene YGR082W
  The level of expressed mRNA in the presence of chemical substance/The level of expressed mRNA in the absence of chemical substance: 1.0
Yeast gene YGR096W
  The level of expressed mRNA in the presence of chemical substance/The level of expressed mRNA in the absence of chemical substance: 1.5
Yeast gene YGR138C
  The level of expressed mRNA in the presence of chemical substance/The level of expressed mRNA in the absence of chemical substance: 1.1
Yeast gene YGR191W
  The level of expressed mRNA in the presence of chemical substance/The level of expressed mRNA in the absence of chemical substance: 0.8
Yeast gene YGR197C
  The level of expressed mRNA in the presence of chemical substance/The level of expressed mRNA in the absence of chemical substance: 1.1
